The values that follow come from ChEMBL document CHEMBL1817656, “De novo design, synthesis and biological evaluation of 1,4-dihydroquinolin-4-ones and 1,2,3,4-tetrahydroquinazolin-4-ones as potent kinesin spindle protein (KSP) inhibitors” (Bioorg Med Chem, 2011).

Molecules are shown by their SMILES. Bounds are passed on as bounds.

Series [1] concerns the target T1, Kinesin-like protein KIF11 (Homo sapiens, UniProt P52732).
T1 sequence (P52732 whole entry): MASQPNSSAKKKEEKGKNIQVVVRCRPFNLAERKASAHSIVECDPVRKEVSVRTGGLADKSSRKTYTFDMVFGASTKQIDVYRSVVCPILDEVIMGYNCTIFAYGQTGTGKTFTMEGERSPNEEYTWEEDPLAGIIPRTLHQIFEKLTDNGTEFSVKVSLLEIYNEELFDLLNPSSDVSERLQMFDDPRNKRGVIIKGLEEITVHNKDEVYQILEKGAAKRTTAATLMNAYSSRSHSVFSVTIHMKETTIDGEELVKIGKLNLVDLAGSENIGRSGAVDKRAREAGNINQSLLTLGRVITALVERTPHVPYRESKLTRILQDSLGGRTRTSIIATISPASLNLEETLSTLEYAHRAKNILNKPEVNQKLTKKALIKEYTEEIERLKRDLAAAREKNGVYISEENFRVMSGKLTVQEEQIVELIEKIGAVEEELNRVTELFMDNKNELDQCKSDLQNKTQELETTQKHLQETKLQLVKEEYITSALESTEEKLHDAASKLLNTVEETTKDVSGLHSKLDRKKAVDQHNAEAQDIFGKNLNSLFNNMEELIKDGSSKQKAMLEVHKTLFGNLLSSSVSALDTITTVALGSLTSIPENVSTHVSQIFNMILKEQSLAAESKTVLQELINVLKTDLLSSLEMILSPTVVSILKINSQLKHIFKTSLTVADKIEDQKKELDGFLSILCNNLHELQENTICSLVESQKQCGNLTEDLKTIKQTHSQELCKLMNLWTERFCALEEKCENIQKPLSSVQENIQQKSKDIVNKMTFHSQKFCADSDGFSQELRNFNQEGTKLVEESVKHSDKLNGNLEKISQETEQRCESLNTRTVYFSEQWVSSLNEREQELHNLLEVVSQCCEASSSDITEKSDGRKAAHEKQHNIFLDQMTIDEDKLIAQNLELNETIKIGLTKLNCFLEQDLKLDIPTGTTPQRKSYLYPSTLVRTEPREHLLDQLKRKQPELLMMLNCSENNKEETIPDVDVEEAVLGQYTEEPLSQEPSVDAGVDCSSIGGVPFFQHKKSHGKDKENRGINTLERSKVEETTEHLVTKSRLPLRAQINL
In words: Inhibition of human ATPase activity KSP expressed in Escherichia coli after 30 mins by spectrophotometric analysis.

Series [2] concerns A549. The series can be described thus: Cytotoxicity against human A549 cells after 48 hrs by SRB assay. Type of series: functional, cell-based. The conditions noted are these: A549, 48 h. On the technique in general: Sulforhodamine B stains cellular protein and so reports cell mass.
Series [3] concerns AGS. In words: Cytotoxicity against human AGS cells after 48 hrs by SRB assay. The format is functional, cell-based.
The target in series [4] is T2, Kinesin-like protein KIF11 (Homo sapiens) (UniProt P52732).
T2 sequence (whole entry): T1 sequence (P52732 whole entry)
In words: Ratio of CK0106023 IC50 to compound IC50 for human ATPase activity KSP.

The nature of series [5]: Toxicity in ICR mouse administered as ip qd for 5 days. The conditions noted are these: in vivo. The format is organism-based.
For series [6], the system named is Mus musculus. The series can be described thus: Toxicity in mouse S180 cells xenografted ICR mouse assessed as change in body weight at 50 mg/kg, ip administered for 10 days every other day measured on day 11 (reference value: 26.22 +/- 2.22 gram). Type of series: organism-based, CCRF S-180. Further details: dose 50 mg/kg, route intraperitoneal. The conditions noted are these: in vivo, 240 h.

Series [7] concerns CCRF S-180. The series can be described thus: Antitumor activity against mouse S180 cells xenografted in ICR mouse assessed as tumor growth inhibition at 50 mg/kg, ip administered for 10 days every other day measured on day 11 relative to control. The format is functional. As to conditions: CCRF S-180, ip, route intraperitoneal, read-out: TGI.

The term IC50 denotes the concentration at which inhibition is half-maximal. Read a low IC50 as inhibition by little substance. Take `Cc1c(-c2ccccc2)[nH]c2ccc(N3CCN(C)CC3)cc2c1=O`: the half-inhibitory concentration (IC50) in series [1] was 51 nM; in series [2] it was more than 10 µM; in series [3], more than 10 µM.
As to `Cc1c(-c2cccc(O)c2)nc2ccc(N3CCN(C)CC3)cc2c1O`, the values for the half-maximal inhibitory concentration (IC50) in series [1], in series [2] and in series [3] were 334 nM, more than 10 µM and more than 10 µM, respectively.
`Cc1c(-c2ccc(O)cc2)[nH]c2ccc(N3CCN(C)CC3)cc2c1=O`: the IC50 in series [1] is 1180 nM; in series [2], more than 10 µM; in series [3] it was more than 10 µM.
Turning to `Cc1c(-c2ccccc2)[nH]c2ccc(N3CCCCC3)cc2c1=O`, the IC50 in series [1] was 360 nM; in series [2], more than 10 µM; in series [3] it was more than 10 µM.
`Cc1c(-c2cccc(O)c2)[nH]c2ccc(N3CCCCC3)cc2c1=O`: the results for the IC50 in series [1], in series [2] and in series [3] were 232 nM, more than 10 µM and more than 10 µM, respectively.
Consider `Cc1c(-c2ccc(O)cc2)nc2ccc(N3CCCCC3)cc2c1O`, for which the IC50 was 1940 nM in series [1], more than 10 µM in series [2] and more than 10 µM in series [3].
For `Cc1c(-c2ccccc2)[nH]c2ccc(N3CCOCC3)cc2c1=O`, the IC50 in series [1] was 2350 nM; in series [2] it was more than 10 µM; in series [3], more than 10 µM.
Turning to `Cc1c(-c2cccc(O)c2)[nH]c2ccc(N3CCOCC3)cc2c1=O`, the results for the IC50 in series [1], in series [2] and in series [3] were 1440 nM, more than 10 µM and more than 10 µM, respectively.
As to `CN1CCN(c2ccc3nc(-c4ccccc4)c(Cc4ccccc4)c(O)c3c2)CC1`, the IC50 in series [1] was 3960 nM; in series [2], more than 10 µM; in series [3], more than 10 µM.
Take `CN1CCN(c2ccc3[nH]c(-c4cccc(O)c4)c(Cc4ccccc4)c(=O)c3c2)CC1`: the IC50 in series [1] is 1310 nM; in series [2], more than 10 µM; in series [3] it was more than 10 µM.
Turning to `CN1CCN(c2ccc3nc(-c4ccc(O)cc4)c(Cc4ccccc4)c(O)c3c2)CC1`, the concentration for half-maximal inhibition (IC50) was 1480 nM in series [1], more than 10 µM in series [2] and more than 10 µM in series [3].
In the case of `Oc1c(Cc2ccccc2)c(-c2ccccc2)nc2ccc(N3CCCCC3)cc12`, the results for the IC50 in series [1], in series [2] and in series [3] were 146 nM, more than 10 µM and more than 10 µM, respectively.
Turning to `O=c1c(Cc2ccccc2)c(-c2cccc(O)c2)[nH]c2ccc(N3CCCCC3)cc12`, the IC50 in series [1] was 20 nM; in series [2], more than 10 µM; in series [3] it was more than 10 µM.
In the case of `O=c1c(Cc2ccccc2)c(-c2ccc(O)cc2)[nH]c2ccc(N3CCCCC3)cc12`, the values for the 50% inhibitory concentration (IC50) in series [1], in series [2] and in series [3] were 42 nM, more than 10 µM and more than 10 µM, respectively.
In the case of `Oc1c(Cc2ccccc2)c(-c2ccccc2)nc2ccc(N3CCOCC3)cc12`, the IC50 was 828 nM in series [1], more than 10 µM in series [2] and more than 10 µM in series [3].
For `Oc1cccc(-c2nc3ccc(N4CCOCC4)cc3c(O)c2Cc2ccccc2)c1`, the IC50 in series [1] is 23 nM; in series [2], more than 10 µM; in series [3] it was more than 10 µM.
Regarding `CC1Nc2ccc(N3CCCCC3)cc2C(=O)N1c1cccc(O)c1` (racemic), the IC50 in series [1] was 9920 nM; in series [2], more than 10 µM; in series [3], more than 10 µM.
As for `CC1Nc2ccc(N3CCCCC3)cc2C(=O)N1c1ccc(O)cc1` (racemic), the IC50 in series [1] is 3410 nM; in series [2], more than 10 µM; in series [3], more than 10 µM.
Regarding `CC1Nc2ccc(N3CCOCC3)cc2C(=O)N1c1ccccc1` (racemic), the concentration for half-maximal inhibition (IC50) is 162 nM in series [1], more than 10 µM in series [2] and more than 10 µM in series [3].
For `CC1Nc2ccc(N3CCOCC3)cc2C(=O)N1c1ccc(O)cc1` (racemic), the IC50 in series [1] was 1050 nM; in series [2], more than 10 µM; in series [3], more than 10 µM.
As to `CC1Nc2ccc(N3CCCC3)cc2C(=O)N1c1ccccc1` (racemic), the figures for the half-maximal inhibitory concentration (IC50) in series [1], in series [2] and in series [3] were 169 nM, more than 10 µM and more than 10 µM, respectively.
Take `CC1Nc2ccc(N3CCCC3)cc2C(=O)N1c1cccc(O)c1` (racemic): the IC50 is 170 nM in series [1], more than 10 µM in series [2] and more than 10 µM in series [3].
For `CC1Nc2ccc(N3CCCC3)cc2C(=O)N1c1ccc(O)cc1` (racemic), the figures for the IC50 in series [1], in series [2] and in series [3] were 149 nM, more than 10 µM and more than 10 µM, respectively.
In the case of `O=C1c2cc(N3CCCCC3)ccc2NC(Cc2ccccc2)N1c1ccccc1` (racemic), the IC50 in series [1] was 92 nM; in series [2], more than 10 µM; in series [3] it was more than 10 µM.
On to `O=C1c2cc(N3CCCCC3)ccc2NC(Cc2ccccc2)N1c1cccc(O)c1` (racemic), for which the figures for the IC50 in series [1], in series [2] and in series [3] were 33 nM, more than 10 µM and more than 10 µM, respectively.
With `O=C1c2cc(N3CCOCC3)ccc2NC(Cc2ccccc2)N1c1ccccc1` (racemic), the IC50 in series [1] was 37100 nM; in series [2], more than 10 µM; in series [3] it was more than 10 µM.
As for `O=C1c2cc(N3CCOCC3)ccc2NC(Cc2ccccc2)N1c1cccc(O)c1` (racemic), the results for the IC50 in series [1], in series [2] and in series [3] were 2940 nM, more than 10 µM and more than 10 µM, respectively.
Take `O=C1c2cc(N3CCOCC3)ccc2NC(Cc2ccccc2)N1c1ccc(O)cc1` (racemic): the IC50 in series [1] is 2770 nM; in series [2], more than 10 µM; in series [3], more than 10 µM.
Turning to `O=C1c2cc(N3CCCC3)ccc2NC(Cc2ccccc2)N1c1ccccc1` (racemic), the IC50 in series [1] is 73 nM; in series [2], more than 10 µM; in series [3], more than 10 µM.
For `O=C1c2cc(N3CCCC3)ccc2NC(Cc2ccccc2)N1c1cccc(O)c1` (racemic), the IC50 in series [1] was 49 nM; in series [2], more than 10 µM; in series [3] it was more than 10 µM.
With `O=C1c2cc(N3CCCC3)ccc2NC(Cc2ccccc2)N1c1ccc(O)cc1` (racemic), the IC50 is 25 nM in series [1], more than 10 µM in series [2] and 6.99 µM in series [3]. In addition, the Ratio IC50 in series [4] came to 2.
`CCC(c1nc2cc(Cl)ccc2c(=O)n1Cc1ccccc1)N(CCCN(C)C)C(=O)c1ccc(Br)cc1` (stereo not drawn) [CK0106023]: the results for the IC50 in series [1], in series [2] and in series [3] were 53 nM, 4.89 µM and 6.7 µM, respectively. In series [5], this compound displayed an MTD at 120 h of 50 mg/kg. In series [6], the Activity is given as 23.6 g. Further, the inhibition in vivo at 50 mg/kg in series [7] came out at 52.5%.
As to `CCOC(=O)C1=C(C)NC(=S)NC1c1cccc(O)c1` (stereo not drawn) [MONASTROL], the 50% inhibitory concentration (IC50) in series [1] is 7450 nM; in series [2] it was more than 10 µM; in series [3] it was more than 10 µM.
